Measurements reported in US7659263B2, “Thienopyrrole compound and use thereof as HCV polymerase inhibitor” (Japan Tobacco Inc., priority 2004, dated 2010).
Structures can show the parent of a compound that is named as a salt.

Legend:
NS5B 1a = target: T1, NS5B 1a (Hepatitis C virus genotype 1a, UniProt P27958); assay: Assay of enzyme (HCV polymerase) inhibitory activity, NS5B 1a; format: biochemical; conditions: HCV polymerase NS5B 1a; [3H]UTP incorporation, 25° C., 90 min
T1 construct: NS5B 1a

NS5B 1b = target: T2, NS5B 1b (Hepatitis C virus genotype 1b, UniProt P26663); assay: Assay of enzyme (HCV polymerase) inhibitory activity, NS5B 1b; format: biochemical
T2 construct: a region encoding NS5B (J Virol 1991 March, 65(3), 1105-13, 544 amino acids after deletion of 47 amino acids on the C-terminal); 6 His (C); made in house; host or cells: Escherichia coli
From the text: The evaluation of the HCV polymerase inhibitory activity of the compound of the present invention is explained in the following. This polymerase is an enzyme coded for by the non-structural protein region called NS5B on the genome RNA of HCV (EMBO J., 15:12-22, 1996).
i) Preparation of enzyme (HCV polymerase)
Using, as a template, a cDNA clone corresponding to the full length genome RNA of HCV BK strain obtained from the blood of a patient with hepatitis C, a region encoding NS5B (J Virol 1991 March, 65(3), 1105-13, 544 amino acids after deletion of 47 amino acids on the C-terminal) was amplified by PCR. The objective gene was prepared by adding a 6 His tag {base pair encoding 6 continuous histidine (His)} to the 3′ end thereof and transformed to Escherichia coli. The Escherichia coli capable of producing the objective protein was cultured. The obtained cells were suspended in a buffer solution and crushed in a microfluidizer. The supernatant was obtained by centrifugation and applied to various column chromatographys {mono-S, Sephacryl S-200 (Pharmacia)}, inclusive of metal chelate chromatography, to give a standard enzyme product.
ii) Synthesis of Substrate RNA
Using a synthetic primer designed based on the sequence of HCV genomic 3′ untranslated region, a DNA fragment (148 bp) containing polyU and 3′X sequence was entirely synthesized and cloned into plasmid pBluescript SK II(+) (Stratagene). The cDNA encoding full length NS5B, which was prepared in i) above, was digested with restriction enzyme KpnI to give a cDNA fragment containing the nucleotide sequence of from the restriction enzyme cleavage site to the termination codon. This cDNA fragment was inserted into the upstream of 3′ untranslated region of the DNA in pBluescript SK II(+) and ligated. The about 450 bp inserted DNA sequence was used as a template in the preparation of substrate RNA. This plasmid was cleaved immediately after the 3′X sequence, linearized and purified by phenol-chloroform treatment and ethanol precipitation to give DNA.
RNA was synthesized (37° C., 3 hr) by run-off method using this purified DNA as a template, a promoter of pBluescript SK II(+), MEGAscript RNA synthesis kit (Ambion) and T7 RNA polymerase. DNase I was added and the mixture was incubated for 1 hr. The template DNA was removed by decomposition to give a crude RNA product. This crude product was treated with phenol-chloroform and purified by ethanol precipitation to give the objective substrate RNA.
This RNA was applied to formaldehyde denaturation agarose gel electrophoresis to confirm the quality thereof and preserved at −80° C. iii) Assay of enzyme (HCV polymerase) inhibitory activity A test substance (compound of the present invention) and a reaction mixture (30 μl) having the following composition were reacted at 25° C. for 90 min.
10% Trichloroacetic acid at 4° C. and 1% sodium pyrophosphate solution (150 μl) were added to this reaction mixture to stop the reaction. The reaction mixture was left standing in ice for 15 min to insolubilize RNA. This RNA was trapped on a glass filter (Whatman GF/C and the like) upon filtration by suction. This filter was washed with a solution containing 1% trichloroacetic acid and 0.1% sodium pyrophosphate, washed with 90% ethanol and dried. A liquid scintillation cocktail (Packard) was added and the radioactivity of RNA synthesized by the enzyme reaction was measured on a liquid scintillation counter.
The HCV polymerase inhibitory activity (IC50) of the compound of the present invention was calculated from the values of radioactivity of the enzyme reaction with and without the 20 test substance. […]

T2 sequence (P26663 2420-2963): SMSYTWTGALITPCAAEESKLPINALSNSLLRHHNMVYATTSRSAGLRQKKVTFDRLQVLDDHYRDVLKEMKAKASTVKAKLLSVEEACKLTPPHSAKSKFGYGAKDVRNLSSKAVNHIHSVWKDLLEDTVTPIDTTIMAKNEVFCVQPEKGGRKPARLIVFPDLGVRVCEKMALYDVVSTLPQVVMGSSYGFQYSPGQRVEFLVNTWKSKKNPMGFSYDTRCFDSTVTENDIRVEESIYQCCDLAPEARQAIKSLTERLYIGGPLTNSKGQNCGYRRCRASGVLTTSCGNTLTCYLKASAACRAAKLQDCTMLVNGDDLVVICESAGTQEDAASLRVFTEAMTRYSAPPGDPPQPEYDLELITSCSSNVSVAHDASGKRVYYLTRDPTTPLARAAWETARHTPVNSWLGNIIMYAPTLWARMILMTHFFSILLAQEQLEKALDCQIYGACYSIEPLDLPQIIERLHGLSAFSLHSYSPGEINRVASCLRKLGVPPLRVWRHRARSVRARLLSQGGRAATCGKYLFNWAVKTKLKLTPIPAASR
T1 sequence (P27958 2421-3011): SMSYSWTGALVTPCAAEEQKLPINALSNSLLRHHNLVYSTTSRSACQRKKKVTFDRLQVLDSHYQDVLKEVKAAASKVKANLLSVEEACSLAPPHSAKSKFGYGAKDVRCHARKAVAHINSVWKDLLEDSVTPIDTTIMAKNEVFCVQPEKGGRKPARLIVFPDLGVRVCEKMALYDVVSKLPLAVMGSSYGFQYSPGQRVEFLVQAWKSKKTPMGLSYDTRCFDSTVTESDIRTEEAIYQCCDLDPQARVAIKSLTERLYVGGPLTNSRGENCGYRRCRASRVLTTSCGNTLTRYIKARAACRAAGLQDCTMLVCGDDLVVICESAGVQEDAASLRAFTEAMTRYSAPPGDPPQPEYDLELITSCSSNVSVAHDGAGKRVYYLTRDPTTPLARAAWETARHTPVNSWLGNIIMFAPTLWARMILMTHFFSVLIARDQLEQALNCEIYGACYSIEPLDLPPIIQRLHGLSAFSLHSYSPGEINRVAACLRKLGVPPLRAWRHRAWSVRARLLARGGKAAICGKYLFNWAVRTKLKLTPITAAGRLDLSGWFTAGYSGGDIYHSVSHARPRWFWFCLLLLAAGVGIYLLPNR

Structure (SMILES) | IC50 (NS5B 1a) [nM] | IC50 (NS5B 1b) [nM]
CC1CCCN(CCN2CCn3c(c(C4CCCCC4)c4sc(C(=O)O)cc43)-c3ccc(Cl)cc32)C1 (stereo not shown) [Example 30, 8-chloro-11-cyclohexyl-6-[2-(3-methylpiperidin-1-yl)ethyl]-5,6-dihydro-4H-1-thia-3b,6-diazabenzo[e]cyclopenta[a]azulene-2-carboxylic acid dihydrochloride] | 10 to 100 | < 10
COc1ccc2c(c1)OCCn1c-2c(C2CCCCC2)c2sc(C(=O)NC3(C(=O)Nc4ccc(/C=C/C(=O)O)cc4)CCC3)cc21 [Example 37, (E)-3-[4-({1-[(11-cyclohexyl-8-methoxy-4,5-dihydro-6-oxa-1-thia-3b-azabenzo[e]cyclopenta[a]azulene-2-carbonyl)amino]cyclobutanecarbonyl}amino)phenyl]acrylic acid] | 10 to 100 | 10 to 100
Cc1ccc2c(c1)N(CCN1CCCCC1)CCn1c-2c(C2CCCCC2)c2sc(C(=O)O)cc21 [Example 19, 11-cyclohexyl-8-methyl-6-[2-(piperidin-1-yl)ethyl]-5,6-dihydro-4H-1-thia-3b,6-diazabenzo[e]cyclopenta[a]azulene-2-carboxylic acid dihydrochloride] | 10 to 100 | < 10
O=C(O)c1cc2c(s1)c(C1CCCCC1)c1n2CCN(CCN2CCCOCC2)c2cc(Cl)ccc2-1 [Example 32, 8-chloro-11-cyclohexyl-6-[2-(1,4-oxazepan-4-yl)ethyl]-5,6-dihydro-4H-1-thia-3b,6-diazabenzo[e]cyclopenta[a]azulene-2-carboxylic acid dihydrochloride] | 10 to 100 | < 10
O=C(O)c1cc2c(s1)c(C1CCCCC1)c1n2CCOc2c-1cccc2N(CCN1CCOCC1)CCN1CCOCC1 [Example 46, 7-{bis[2-(morpholin-4-yl)ethyl]amino}-1l-cyclohexyl-4,5-dihydro-6-oxa-1-thia-3b-azabenzo[e]cyclopenta[a]azulene-2-carboxylic acid trihydrochloride] | 10 to 100 | < 10
Cc1ccc2c(c1)N(CCN1CCCC(C)C1)CCn1c-2c(C2CCCCC2)c2sc(C(=O)O)cc21 (stereo not shown) [Example 26, 11-cyclohexyl-8-methyl-6-[2-(3-methylpiperidin-1-yl)ethyl]-5,6-dihydro-4H-1-thia-3b,6-diazabenzo[e]cyclopenta[a]azulene-2-carboxylic acid dihydrochloride] | 10 to 100 | 10 to 100
CN1CCn2c(c(C3CCCCC3)c3sc(C(=O)NC4(C(=O)Nc5ccc(/C=C/C(=O)O)cc5)CCC4)cc32)-c2ccc(Cl)cc21 [Example 39, (E)-3-[4-({1-[(8-chloro-11-cyclohexyl-6-methyl-5,6-dihydro-4H-1-thia-3b,6-diazabenzo[e]cyclopenta[a]azulene-2-carbonyl)amino]cyclobutanecarbonyl}amino)phenyl]acrylic acid] | 10 to 100 | 10 to 100
CCN1CCN(C(=O)CN2CCn3c(c(C4CCCCC4)c4sc(C(=O)O)cc43)-c3ccc(C)cc32)CC1 [Example 35, 11-cyclohexyl-6-[2-(4-ethylpiperazin-1-yl)-2-oxoethyl]-8-methyl-5,6-dihydro-4H-1-thia-3b,6-diazabenzo[e]cyclopenta[a]azulene-2-carboxylic acid dihydrochloride] | 10 to 100 | 10 to 100
